BindingDB's records for doi:10.1016/j.carres.2010.10.023 (East China University of Science and Technology, 2011)

Legend:
Experiment in all cases: Inhibitor Assay
Conditions in all cases: 30 °C
[1] = target: T1, Tyrosine-protein phosphatase non-receptor type 1 (Homo sapiens, UniProt P18031)
T1 sequence (P18031 whole entry): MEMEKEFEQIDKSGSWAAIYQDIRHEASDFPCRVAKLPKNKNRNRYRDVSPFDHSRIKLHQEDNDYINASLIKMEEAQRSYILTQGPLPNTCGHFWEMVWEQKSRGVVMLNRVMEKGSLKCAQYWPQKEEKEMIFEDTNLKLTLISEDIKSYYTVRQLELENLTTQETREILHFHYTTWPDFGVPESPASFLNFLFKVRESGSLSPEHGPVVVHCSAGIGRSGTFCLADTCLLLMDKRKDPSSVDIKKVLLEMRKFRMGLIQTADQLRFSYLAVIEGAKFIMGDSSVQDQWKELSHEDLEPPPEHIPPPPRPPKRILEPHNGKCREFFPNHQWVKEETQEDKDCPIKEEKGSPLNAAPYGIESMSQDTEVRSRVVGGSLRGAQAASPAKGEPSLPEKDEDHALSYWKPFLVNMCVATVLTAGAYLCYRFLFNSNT
Procedure: The assay mixture ([…]) containing 50 mM MOPS (pH 6.5), 2 mM pNPP and PTP1B were monitored at 405 nm for 2 min at 30 C.

[2] = target: Receptor-type tyrosine-protein phosphatase F (Homo sapiens, UniProt P10586)
[3] = target: T2, Tyrosine-protein phosphatase non-receptor type 11 (Homo sapiens, UniProt Q06124)
T2 sequence (Q06124 whole entry): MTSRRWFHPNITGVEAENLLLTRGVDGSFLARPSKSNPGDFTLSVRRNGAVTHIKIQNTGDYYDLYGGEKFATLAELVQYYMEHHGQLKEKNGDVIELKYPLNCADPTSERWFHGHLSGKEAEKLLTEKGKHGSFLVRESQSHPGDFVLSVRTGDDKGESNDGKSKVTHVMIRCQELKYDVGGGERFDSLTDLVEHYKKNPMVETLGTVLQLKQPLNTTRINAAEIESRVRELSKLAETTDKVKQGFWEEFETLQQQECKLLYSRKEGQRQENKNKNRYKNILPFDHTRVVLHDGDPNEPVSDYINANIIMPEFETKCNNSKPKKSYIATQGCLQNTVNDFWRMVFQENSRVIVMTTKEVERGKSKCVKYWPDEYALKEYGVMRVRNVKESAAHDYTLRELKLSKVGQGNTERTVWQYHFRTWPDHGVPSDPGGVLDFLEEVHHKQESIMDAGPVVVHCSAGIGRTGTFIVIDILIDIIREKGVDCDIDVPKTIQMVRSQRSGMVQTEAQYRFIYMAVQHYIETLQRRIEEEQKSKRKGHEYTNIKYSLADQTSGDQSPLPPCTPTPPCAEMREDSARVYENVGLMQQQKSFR

[4] = target: T3, Tyrosine-protein phosphatase non-receptor type 2 (Homo sapiens, UniProt P17706)
T3 sequence (P17706 whole entry): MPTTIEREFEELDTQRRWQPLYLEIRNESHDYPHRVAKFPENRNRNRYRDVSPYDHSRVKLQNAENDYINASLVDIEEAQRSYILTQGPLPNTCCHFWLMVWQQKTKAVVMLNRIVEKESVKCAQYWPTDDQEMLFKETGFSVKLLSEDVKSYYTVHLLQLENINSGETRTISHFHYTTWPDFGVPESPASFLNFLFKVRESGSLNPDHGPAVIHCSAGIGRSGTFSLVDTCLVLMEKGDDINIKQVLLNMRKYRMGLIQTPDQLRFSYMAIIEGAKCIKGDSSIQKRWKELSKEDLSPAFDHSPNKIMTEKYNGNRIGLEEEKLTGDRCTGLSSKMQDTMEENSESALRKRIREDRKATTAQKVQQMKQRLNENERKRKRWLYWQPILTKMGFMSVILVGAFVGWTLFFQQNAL

[5] = target: Tyrosine-protein phosphatase non-receptor type 6 (Homo sapiens, UniProt P29350)
Sequence of Tyrosine-protein phosphatase non-receptor type 6 (P29350 whole entry): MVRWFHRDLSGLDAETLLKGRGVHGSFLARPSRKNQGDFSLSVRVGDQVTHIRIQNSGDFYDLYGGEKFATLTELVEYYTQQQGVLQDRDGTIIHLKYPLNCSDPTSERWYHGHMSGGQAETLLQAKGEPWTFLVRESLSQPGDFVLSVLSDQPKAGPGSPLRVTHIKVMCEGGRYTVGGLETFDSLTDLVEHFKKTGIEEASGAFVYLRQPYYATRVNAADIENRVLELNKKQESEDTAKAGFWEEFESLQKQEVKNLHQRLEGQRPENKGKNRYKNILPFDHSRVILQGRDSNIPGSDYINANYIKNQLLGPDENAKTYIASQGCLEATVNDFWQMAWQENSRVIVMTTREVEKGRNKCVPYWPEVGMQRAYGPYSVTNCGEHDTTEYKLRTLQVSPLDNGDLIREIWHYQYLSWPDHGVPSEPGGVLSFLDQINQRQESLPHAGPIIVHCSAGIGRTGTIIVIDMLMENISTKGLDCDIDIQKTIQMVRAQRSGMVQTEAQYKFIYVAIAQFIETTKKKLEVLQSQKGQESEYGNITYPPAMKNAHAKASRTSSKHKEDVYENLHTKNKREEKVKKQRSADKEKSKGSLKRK

Sequence of Receptor-type tyrosine-protein phosphatase F (P10586 whole entry): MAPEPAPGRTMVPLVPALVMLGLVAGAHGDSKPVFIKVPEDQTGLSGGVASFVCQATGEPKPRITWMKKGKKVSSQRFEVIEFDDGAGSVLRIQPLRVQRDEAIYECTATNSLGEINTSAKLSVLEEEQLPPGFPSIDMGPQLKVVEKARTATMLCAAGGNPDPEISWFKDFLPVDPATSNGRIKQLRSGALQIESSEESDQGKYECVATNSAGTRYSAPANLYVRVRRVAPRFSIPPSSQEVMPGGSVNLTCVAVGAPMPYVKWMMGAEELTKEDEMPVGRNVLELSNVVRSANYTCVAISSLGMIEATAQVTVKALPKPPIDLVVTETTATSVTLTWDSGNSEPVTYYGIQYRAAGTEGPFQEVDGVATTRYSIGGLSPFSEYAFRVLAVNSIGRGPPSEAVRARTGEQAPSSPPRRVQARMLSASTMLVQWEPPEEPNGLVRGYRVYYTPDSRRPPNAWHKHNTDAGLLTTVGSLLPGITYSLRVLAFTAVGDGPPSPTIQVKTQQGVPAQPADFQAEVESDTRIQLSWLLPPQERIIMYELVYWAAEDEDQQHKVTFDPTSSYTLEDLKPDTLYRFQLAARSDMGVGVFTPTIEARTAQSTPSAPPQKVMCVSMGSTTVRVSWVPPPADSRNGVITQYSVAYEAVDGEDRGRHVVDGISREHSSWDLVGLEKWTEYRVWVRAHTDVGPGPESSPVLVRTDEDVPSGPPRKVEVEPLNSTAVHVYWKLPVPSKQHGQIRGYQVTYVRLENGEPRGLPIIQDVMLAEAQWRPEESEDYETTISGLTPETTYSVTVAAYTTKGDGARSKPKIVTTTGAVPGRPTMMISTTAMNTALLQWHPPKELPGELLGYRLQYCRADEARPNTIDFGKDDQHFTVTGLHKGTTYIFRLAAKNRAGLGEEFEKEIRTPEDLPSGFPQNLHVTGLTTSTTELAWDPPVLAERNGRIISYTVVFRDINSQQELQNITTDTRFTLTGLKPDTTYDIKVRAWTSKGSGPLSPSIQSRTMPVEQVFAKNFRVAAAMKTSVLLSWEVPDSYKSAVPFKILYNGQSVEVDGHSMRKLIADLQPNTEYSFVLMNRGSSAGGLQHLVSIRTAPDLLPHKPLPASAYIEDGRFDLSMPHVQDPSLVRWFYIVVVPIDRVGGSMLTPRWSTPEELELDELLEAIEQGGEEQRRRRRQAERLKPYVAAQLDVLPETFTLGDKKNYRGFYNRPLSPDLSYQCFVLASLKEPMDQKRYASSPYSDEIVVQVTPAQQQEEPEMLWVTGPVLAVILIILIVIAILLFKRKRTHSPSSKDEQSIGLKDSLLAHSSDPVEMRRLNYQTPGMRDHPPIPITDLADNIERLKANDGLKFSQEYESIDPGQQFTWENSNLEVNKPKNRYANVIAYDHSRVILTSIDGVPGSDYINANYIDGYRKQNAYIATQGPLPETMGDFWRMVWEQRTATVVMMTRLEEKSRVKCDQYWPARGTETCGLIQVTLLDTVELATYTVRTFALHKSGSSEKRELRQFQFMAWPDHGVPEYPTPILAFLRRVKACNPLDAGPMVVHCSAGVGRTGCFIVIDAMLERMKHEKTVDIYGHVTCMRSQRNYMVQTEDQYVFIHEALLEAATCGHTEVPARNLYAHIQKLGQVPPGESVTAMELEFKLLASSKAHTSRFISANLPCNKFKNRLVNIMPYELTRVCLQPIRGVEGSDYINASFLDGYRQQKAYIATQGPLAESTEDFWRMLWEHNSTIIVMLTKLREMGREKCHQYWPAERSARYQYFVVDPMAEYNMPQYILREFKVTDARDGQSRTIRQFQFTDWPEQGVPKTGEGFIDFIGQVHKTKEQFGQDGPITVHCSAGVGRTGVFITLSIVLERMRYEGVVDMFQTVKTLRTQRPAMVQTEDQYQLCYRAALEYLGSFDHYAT

| Compound | IC50 [1] | also measured |
| --- | --- | --- |
| CO[C@H]1O[C@H](COCc2cn(-c3ccc(C(=O)C(=O)O)cc3)nn2)[C@@H](OCc2ccccc2)[C@H](OCc2ccccc2)[C@H]1OCc1ccccc1 [Methyl 2,3,4-tri-O-benzyl-6-O-[1-(4-(carboxycarbonyl)phenyl)-1H-1,2,3-triazol-4-ylmethyl] a-D-glucopyranoside (15)] | 3.2 µM | IC50 [2]: > 100 µM; IC50 [3]: > 100 µM; IC50 [4]: 14.5 µM; IC50 [5]: > 100 µM |
| COC(=O)C(=O)c1ccc(-n2cc(COC[C@H]3O[C@H](OC)[C@H](OCc4ccccc4)[C@@H](OCc4ccccc4)[C@@H]3OCc3ccccc3)nn2)cc1 [Methyl 2,3,4-tri-O-benzyl-6-O-[1-(4-(2-methoxy-2-oxoacetyl)phenyl)-1H-1,2,3-triazol-4-ylmethyl] a-D-glucopyranoside (13)] | 12.7 µM | – |
| CO[C@H]1O[C@H](COCc2cn(-c3ccc(C(C)=O)cc3)nn2)[C@@H](OCc2ccccc2)[C@H](OCc2ccccc2)[C@H]1OCc1ccccc1 [Methyl 2,3,4-tri-O-benzyl-6-O-[1-(4-acetylphenyl)-1H-1,2,3-triazol-4-ylmethyl] a-D-glucopyranoside (10)] | > 100 µM | – |
| [N-]=[N+]=Nc1ccc(C(=O)C(=O)O)cc1 [1-[4-(carboxycarbonyl)phenyl]triaz-2-yn-2-ium-1-ide (7)] | 30.2 µM | – |
| COC(=O)c1ccc(-n2cc(COC[C@H]3O[C@H](OC)[C@H](OCc4ccccc4)[C@@H](OCc4ccccc4)[C@@H]3OCc3ccccc3)nn2)cc1 [Methyl 2,3,4-tri-O-benzyl-6-O-[1-(4-(methoxycarbonyl)-phenyl)-1H-1,2,3-triazol-4-ylmethyl] a-D-glucopyranoside (12)] | > 100 µM | – |
| COC(=O)C(=O)c1ccc(-n2cc(CO[C@H]3O[C@H](COCc4ccccc4)[C@@H](OCc4ccccc4)[C@H](OCc4ccccc4)[C@H]3OCc3ccccc3)nn2)cc1 [1-(4-(2-Methoxy-2-oxoacetyl)phenyl)-1H-1,2,3-triazol-4-ylmethyl 2,3,4,6-tetra-O-benzyl-a-D-glucopyranoside (17)] | 12.3 µM | – |

More lines, main results first:

| IC50 [1] | Compound | also measured |
| --- | --- | --- |
| 5.6 µM | O=C(O)C(=O)c1ccc(-n2cc(CO[C@H]3O[C@H](COCc4ccccc4)[C@@H](OCc4ccccc4)[C@H](OCc4ccccc4)[C@H]3OCc3ccccc3)nn2)cc1 [1-(4-(Carboxycarbonyl)phenyl)-1H-1,2,3-triazol-4-ylmethyl 2,3,4,6-tetra-O-benzyl a-D-glucopyranoside (19)] | IC50 [2]: > 100 µM; IC50 [3]: 55.4 µM; IC50 [4]: 6.4 µM; IC50 [5]: > 100 µM |
| > 100 µM | CC(=O)c1ccc(-n2cc(CO[C@H]3O[C@H](COCc4ccccc4)[C@@H](OCc4ccccc4)[C@H](OCc4ccccc4)[C@H]3OCc3ccccc3)nn2)cc1 [1-(4-Acetylphenyl)-1H-1,2,3-triazol-4-ylmethyl 2,3,4,6-tetra-O-benzyl a-D-glucopyranoside (11)] | – |
| > 100 µM | CO[C@H]1O[C@H](COCc2cn(-c3ccc(C(=O)O)cc3)nn2)[C@@H](OCc2ccccc2)[C@H](OCc2ccccc2)[C@H]1OCc1ccccc1 [Methyl 2,3,4-tri-O-benzyl-6-O-[1-(4-carboxyphenyl)-1H-1,2,3-triazol-4-ylmethyl] a-D-glucopyranoside (14)] | – |
| > 100 µM | COC(=O)c1ccc(-n2cc(CO[C@H]3O[C@H](COCc4ccccc4)[C@@H](OCc4ccccc4)[C@H](OCc4ccccc4)[C@H]3OCc3ccccc3)nn2)cc1 [1-(4-(Methoxycarbonyl)phenyl)-1H-1,2,3-triazol-4-ylmethyl 2,3,4,6-tetra-O-benzyl a-D-glucopyranoside (16)] | – |
| 11.1 µM | O=C(O)c1ccc(-n2cc(CO[C@H]3O[C@H](COCc4ccccc4)[C@@H](OCc4ccccc4)[C@H](OCc4ccccc4)[C@H]3OCc3ccccc3)nn2)cc1 [1-(4-Carboxyphenyl)-1H-1,2,3-triazol-4-ylmethyl 2,3,4,6-tetra-O-benzyl a-D-glucopyranoside (18)] | – |
